Laboratory results taken from the NIST ThermoML archive (doi:10.1007/s10765-005-8591-6).
± gives the expanded uncertainty stated by the source.

What was measured:
[1] = Fluid (supercritical or subcritical phases), Constant-volume piezometry
[2] = xn = mol fraction of the nth substance listed; conditions: Fluid (supercritical or subcritical phases), Constant-volume piezometry, x1 = 1

FC(F)C(F)(F)F [pentafluoroethane]
mass density ([1]; 258.16 K, 4595.6 kPa): 1403.78 ± 0.63 kg/m3
mass density ([1]; 261.15 K, 6579.8 kPa): 1403.47 ± 0.63 kg/m3
mass density ([1]; 262.14 K, 7284.6 kPa): 1403.36 ± 0.63 kg/m3
mass density ([1]; 267.16 K, 10809 kPa): 1402.84 ± 0.64 kg/m3
mass density ([1]; 270.19 K, 13003 kPa): 1402.53 ± 0.64 kg/m3
mass density ([1]; 273.15 K, 15076 kPa): 1402.23 ± 0.65 kg/m3
mass density ([1]; 275.15 K, 16572 kPa): 1402.04 ± 0.65 kg/m3

FCF [difluoromethane]
mass density ([1]; 313.16 K, 3353.7 kPa): 900.17 ± 0.41 kg/m3
mass density ([1]; 316.15 K, 4967.1 kPa): 899.97 ± 0.41 kg/m3
mass density ([1]; 319.15 K, 6571.4 kPa): 899.77 ± 0.41 kg/m3
mass density ([1]; 322.15 K, 8162.4 kPa): 899.57 ± 0.42 kg/m3
mass density ([1]; 328.16 K, 11400 kPa): 899.19 ± 0.43 kg/m3
mass density ([1]; 334.15 K, 14753 kPa): 898.82 ± 0.44 kg/m3
mass density ([1]; 337.15 K, 16580 kPa): 898.63 ± 0.44 kg/m3

FCF [difluoromethane] + FC(F)C(F)(F)F
mass density ([2]; 313.16 K, 3353.7 kPa): 900.17 ± 0.41 kg/m3
mass density ([2]; 316.15 K, 4967.1 kPa): 899.97 ± 0.41 kg/m3
mass density ([2]; 319.15 K, 6571.4 kPa): 899.77 ± 0.41 kg/m3
mass density ([2]; 322.15 K, 8162.4 kPa): 899.57 ± 0.42 kg/m3
mass density ([2]; 328.16 K, 11400 kPa): 899.19 ± 0.43 kg/m3
mass density ([2]; 334.15 K, 14753 kPa): 898.82 ± 0.44 kg/m3
mass density ([2]; 337.15 K, 16580 kPa): 898.63 ± 0.44 kg/m3
